# Legend:
# hTLR8 = target: T1, hTLR8 (Homo sapiens, UniProt Q9NR97); assay: HEK-Blue hTLR8 SEAP reporter assay; format: cell-based; conditions: HEK-Blue hTLR8 cells, SEAP in supernatant
# T1 construct: host or cells: HEK-Blue hTLR8 (HEK293-derived)
# T1 sequence (Q9NR97 27-1041): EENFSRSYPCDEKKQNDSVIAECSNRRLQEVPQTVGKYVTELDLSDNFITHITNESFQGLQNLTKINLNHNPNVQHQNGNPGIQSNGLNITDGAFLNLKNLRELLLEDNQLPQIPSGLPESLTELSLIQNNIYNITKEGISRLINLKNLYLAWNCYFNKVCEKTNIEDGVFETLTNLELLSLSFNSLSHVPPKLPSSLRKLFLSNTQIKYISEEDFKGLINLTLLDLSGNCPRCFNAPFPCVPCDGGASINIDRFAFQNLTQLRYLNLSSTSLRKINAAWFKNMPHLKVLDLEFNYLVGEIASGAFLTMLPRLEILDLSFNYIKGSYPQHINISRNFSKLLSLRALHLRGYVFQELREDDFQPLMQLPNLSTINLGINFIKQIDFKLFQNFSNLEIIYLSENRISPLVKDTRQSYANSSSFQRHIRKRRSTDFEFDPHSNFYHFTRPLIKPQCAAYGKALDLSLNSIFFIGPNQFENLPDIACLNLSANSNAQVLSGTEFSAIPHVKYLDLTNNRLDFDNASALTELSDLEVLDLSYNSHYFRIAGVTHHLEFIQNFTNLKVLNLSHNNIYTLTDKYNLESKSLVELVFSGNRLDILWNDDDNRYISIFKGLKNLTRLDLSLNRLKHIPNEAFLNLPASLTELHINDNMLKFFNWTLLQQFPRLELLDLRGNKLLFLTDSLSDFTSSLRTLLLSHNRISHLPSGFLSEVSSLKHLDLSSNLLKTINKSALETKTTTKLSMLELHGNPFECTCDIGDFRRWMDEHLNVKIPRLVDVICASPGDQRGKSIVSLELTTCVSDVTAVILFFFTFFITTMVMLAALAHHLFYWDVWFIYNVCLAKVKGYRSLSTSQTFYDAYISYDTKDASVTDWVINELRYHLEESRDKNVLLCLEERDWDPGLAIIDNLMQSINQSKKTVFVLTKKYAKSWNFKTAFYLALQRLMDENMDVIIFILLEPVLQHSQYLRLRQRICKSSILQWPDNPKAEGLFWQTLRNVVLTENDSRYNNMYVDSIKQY
# Procedure: (§1) Starting with the lead compound, 76 pyrido [3,2-d] pyrimidine derivatives were synthesized and optimized through structural modification from the deep hydrophobic region to the solvent-exposed region. Seventy-six compounds were evaluated for their in vitro activity using HEK-Blue hTLR7 or hTLR8 reporter cells, stably expressing the human TLR7 or TLR8 and an NF-κB/AP1-inducible SEAP (secreted embryonic alkaline phosphatase reporter gene).
# (§2) Add 20 μl various concentrations of TLR agonists (10 dilutions) and in a 96-well plate. Then HEK-Blue hTLR7 and hTLR8 cells were suspended to 4 × 10^5 cells/ml in HEK-Blue Detection (InvivoGen) medium and added 180 μl per well. The plates were incubated at 37°C in 5% CO2 for 12 ~ 16 h. Stimulation with a hTLR7or hTLR8 ligand activates NF-κB to induce the production of secreted embryonic alkaline phosphatase (SEAP) in the culture supernatant. SEAP could be measured at OD630nm on an ELISA plate reader.
# PBMCs = assay: Inflammatory cytokine release from PBMCs (Legend-plex); format: cell-based, human; conditions: PBMC culture supernatant 48 h after stimulation
# Procedure: Then, a total of 13 human inflammatory cytokines and chemokines (IL-1β, IFN-α2, IFN-γ, TNF-α, CCL2, IL-6, CXCL8, IL-10, IL-12p70, IL-17A, IL-18, IL-23, and IL-33) were measured in the culture supernatant 48 h after stimulation and compared with two healthy donors. Only 8 out of 13 became detectable and largely fell into the proinflammatory cytokines (IL-1β, IL-6, IL-18, IL-23, and TNF-α), Th1-and Th2-type cytokines (IL-10 and IFN-γ), and type I (IFN-α2) and type II (IFN-γ) interferons (Figures 2B–I).
# The supernatants from PBMCs culture were collected and stored at-20°C until analysis. For the Multi-cytokines assay, the Legend-plex Human Inflammation Panel 1 kit (Biolegend) was used according to the manual. Thirteen human inflammatory cytokines/chemokines were measured, including IL-1β, IFN-α2, IFN-γ, TNF-α, MCP-1 (CCL2), IL-6, IL-8 (CXCL8), IL-10, IL-12p70, IL-17A, IL-18, IL-23, and IL-33.
# NF-κB p65 in U1 cells = assay: Nuclear phospho-p65-S536 in U1 cells (western blot); conditions: 1 μM, 30 min, 37°C
# Procedure: For measuring NF-kB p65 and phosphor-p65 S536, 5 × 10^6 U1 cells were stimulated by 1 μM TLR7/8 agonists D018 (7/8), B-130a (8), GS9620 (7), and DMSO (negative control) for 30 min. Nuclear proteins were extracted by NE-PER Nuclear and Cytoplasmic Extraction Reagents (Pierce) and measured the concentration using BCA protein measure kit (Thermo).
# Equal amounts of extracts were loaded on the 10% polyacrylamide gel SDS-PAGE. Then proteins were electro-transferred to nitrocellulose membranes 300 mA for 90 min and incubated with blocking buffer (5% nonfat dry milk and 0.1% Tween 20 in TBS) for 1 h at room temperature. NF-kB p65, phosphorylate p65-s529, and PCNA (as the control of nuclear protein) were separately detected by NF-κB p65 Mouse mAb (CST), Phospho-NF-κB p65 Ser536 Rabbit mAb (CST) and PCNA Rabbit mAb (CST) in blocking buffer overnight at 4°C. After washing 5 times in TBST (1 × TBS + 0.1% Tween), the membranes were incubated with anti-mouse IgG (H + L) HRP (Promega) and anti-rabbit IgG (H + L) HRP (Promega) for 1 h at room temperature. After washing 5 times in TBST, membranes were incubated with ECL detection reagents (Bio-red) and then developed in Bio-red imager.
# [1] = system: U1 monocytic cell line (latent HIV-1); assay: HIV-1 p24 production in latently infected U1 cells (ELISA); conditions: 1 μM, TLR8- or MyD88-shRNA U1 vs sham-knockdown
# [2] = system: J-LAT cells co-cultured with MDDCs; assay: J-LAT and MDDC co-culture assay (GFP+ cells and TNF-α); conditions: 1 μM, 48 h
# [3] = system: PBMCs from HIV-1 well-suppressed patients; assay: Latent HIV-1 activation in PBMCs of well-suppressed patients (HIV-1 RNA copies in supernatant, RT-qPCR); format: cell-based, human; conditions: for HIV-1 RNA copies in the supernatant and TNF-α concentration: PBMCs from seven well-suppressed patients, IgG1-control antibody vs anti-TNF-α; for HIV-1 RNA copies in the supernatant: patient PBMCs (n = 6), 96 h at 37°C
# Description: To study the potential of novel TLR7/8 in activating latent HIV-1 reservoir, TLR7/8 dual agonists D018 and C142 and TLR8-specific agonist B-130a were mixed with PBMCs from six well-suppressed patients whose viral load in the plasma was less than 50 copies/ml, and CD4 counts were more than […] for more than 6 years.
# TLR7/8 agonists activated PBMCs from seven well-suppressed patients with the addition of anti-TNF-α monoclonal antibody or IgG1-control monoclonal antibody, respectively. D018, B-130a, and the positive control PMA + ION increased the levels of HIV-1 RNA copies in the supernatant and the concentration of TNF-α concomitantly.
# To measure the HIV viral load, viral RNA from supernatants was extracted by MagaBio Plus Viral DNA / RNA Purification Kit (BIOER). The reverse-transcription and analysis of RNA copies were performed using the HIV-1 Real-time PCR detection kit (BIOER).
# hTLR7 = target: T2, hTLR7 (Homo sapiens, UniProt Q9NYK1); assay: HEK-Blue hTLR7 SEAP reporter assay; format: cell-based; conditions: HEK-Blue hTLR7 cells, SEAP in supernatant
# T2 construct: host or cells: HEK-Blue hTLR7 (HEK293-derived)
# T2 sequence (Q9NYK1 27-1049): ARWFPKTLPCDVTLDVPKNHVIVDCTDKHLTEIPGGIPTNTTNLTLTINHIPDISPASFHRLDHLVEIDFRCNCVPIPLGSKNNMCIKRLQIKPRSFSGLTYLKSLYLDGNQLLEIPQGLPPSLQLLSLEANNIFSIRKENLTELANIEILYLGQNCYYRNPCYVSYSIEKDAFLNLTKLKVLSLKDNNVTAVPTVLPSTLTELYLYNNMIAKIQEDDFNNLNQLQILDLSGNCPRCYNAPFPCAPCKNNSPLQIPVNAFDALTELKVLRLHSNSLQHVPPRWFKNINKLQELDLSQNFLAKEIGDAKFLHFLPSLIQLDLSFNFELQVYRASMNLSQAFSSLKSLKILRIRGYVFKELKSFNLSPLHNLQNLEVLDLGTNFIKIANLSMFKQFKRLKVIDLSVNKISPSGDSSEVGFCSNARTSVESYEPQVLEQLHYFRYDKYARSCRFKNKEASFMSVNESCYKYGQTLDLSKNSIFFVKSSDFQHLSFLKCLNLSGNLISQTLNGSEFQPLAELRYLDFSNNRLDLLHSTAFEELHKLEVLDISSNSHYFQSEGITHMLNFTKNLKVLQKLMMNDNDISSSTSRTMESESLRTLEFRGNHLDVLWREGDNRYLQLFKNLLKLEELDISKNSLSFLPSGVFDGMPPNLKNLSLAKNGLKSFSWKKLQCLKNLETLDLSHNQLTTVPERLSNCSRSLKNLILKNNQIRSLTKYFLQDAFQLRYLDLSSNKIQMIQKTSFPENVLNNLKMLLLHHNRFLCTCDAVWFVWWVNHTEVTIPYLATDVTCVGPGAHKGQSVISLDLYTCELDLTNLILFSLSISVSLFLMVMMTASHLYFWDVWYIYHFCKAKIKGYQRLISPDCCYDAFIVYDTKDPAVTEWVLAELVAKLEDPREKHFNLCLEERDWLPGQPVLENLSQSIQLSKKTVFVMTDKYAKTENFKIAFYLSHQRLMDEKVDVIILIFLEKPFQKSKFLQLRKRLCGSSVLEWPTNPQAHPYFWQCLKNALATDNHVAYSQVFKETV
# Procedure: as §1, §2
# [4] = system: J-LAT CD4 T cell line (latent HIV-1); assay: Direct stimulation of J-LAT cells (GFP-positive cells)
# HIV-1 = system: HIV-1; design: method as in SenGupta et al., 2021; conditions: patients treated with oral GS9620, phase 1b, placebo 4.1 weeks; ref SenGupta et al., 2021; cited from earlier work
# [5] = system: J-LAT CD4 T cell line (latent HIV-1); assay: J-LAT activation by supernatant of agonist-stimulated healthy donor PBMCs (GFP+ cells, FACS); conditions: 48 h, highest concentration 16 μM
Molecule,EC50 (hTLR8),EC50 (hTLR7),other results
CCCCCc1cc(Cc2ccc(CN(C)C)cc2)c(C)nc1N [B-130a],55.2 nM,> 10000 nM,release of inflammatory cytokines (PBMCs): comparable potency but were invariably higher than TLR7-specific GS9620; nuclear phos-p65-S536 (NF-κB p65 in U1 cells): significant increase; p24 production after TLR8 or MyD88 knockdown [1]: essentially abolished the p24 production; GFP+ J-LAT cells and soluble TNF-α in MDDC co-culture [2]: marked increase; HIV-1 RNA copies in the supernatant and TNF-α concentration [3]: increased; HIV-1 RNA copies in the supernatant [3]: activated detectable levels of HIV-1 RNA copies
TNF-α,,,"GFP-positive J-LAT cells, direct stimulation [4]: could activate GFP expression"
"CCCN(CCC)C(=O)C1=Cc2ccc(-c3ccc(C(=O)N4CCCC4)cc3)cc2N=C(N)C1 [VTX-2337, reference compound]",151 nM,> 10000 nM,release of inflammatory cytokines (PBMCs): comparable potency but were invariably higher than TLR7-specific GS9620
IFN-α,,,"GFP-positive J-LAT cells, direct stimulation [4]: failed to activate J-LAT cells"
CCCCNc1nc(N)nc2ccc(Cc3ccc(CN(C)C)cc3OC)nc12 [C142],44.1 nM,20 nM,"release of inflammatory cytokines (PBMCs): either equivalent (IL-6, IL-10, IL-23, and IFN-γ) or higher (IL-1β, IL-18, and TNF-α) than the commercially available R848; HIV-1 RNA copies in the supernatant [3]: activated detectable levels of HIV-1 RNA copies"
CCCCNc1nc(N)nc2ccc(C(C)c3ccc(CN(C)C)cc3)nc12 (stereo not shown) [C163],178 nM,1650 nM,
CCCCNc1nc(N)nc2ccc(Cl)nc12 [LB06],2000 nM,2600 nM,
CCCCNc1nc(N)nc2ccc(Cc3ccc(CN4CCCC4)cc3)nc12 [C008],17.3 nM,101 nM,
CCCCCc1cc(Cc2ccc(CN3CCCC3)cc2)c(C)nc1N [B-130b],67.2 nM,> 10000 nM,
"CCCCOc1nc(N)c2c(n1)N(Cc1cccc(CN3CCCC3)c1)CC(=O)N2 [GS9620, reference compound]",> 10000 nM,353 nM,"GFP+ J-LAT cells and soluble TNF-α in MDDC co-culture [2]: no detectable levels; viral rebound time (HIV-1): 5.1 weeks; HIV-1 RNA copies in the supernatant and TNF-α concentration [3]: low detectable levels; GFP-positive J-LAT cells, PBMC supernatant [5]: did not show any detectable effect"
COCCNc1nc(N)nc2ccc(Cc3ccc(CN(C)C)cc3)nc12 [199-1],9.69 nM,117 nM,
CCCCNc1nc(N)nc2ccc(Cc3ccc(CN4CCOCC4)cc3)nc12 [WA86],51 nM,118 nM,
CCCCCc1cc2nc(Cc3ccc(CN(C)C)cc3)ccc2nc1N [WA175],197 nM,> 10000 nM,

# From paper PMC9911797, “Novel TLR7/8 agonists promote activation of HIV-1 latent reservoirs and human T and NK cells” (Frontiers in Microbiology, 2023)
